In this experiment the target is T1, mouse CD1d (mCD1d) (Mus musculus, UniProt P11609).
T1 construct: gene Cd1d1
T1 sequence (P11609 22-305 limits assumed): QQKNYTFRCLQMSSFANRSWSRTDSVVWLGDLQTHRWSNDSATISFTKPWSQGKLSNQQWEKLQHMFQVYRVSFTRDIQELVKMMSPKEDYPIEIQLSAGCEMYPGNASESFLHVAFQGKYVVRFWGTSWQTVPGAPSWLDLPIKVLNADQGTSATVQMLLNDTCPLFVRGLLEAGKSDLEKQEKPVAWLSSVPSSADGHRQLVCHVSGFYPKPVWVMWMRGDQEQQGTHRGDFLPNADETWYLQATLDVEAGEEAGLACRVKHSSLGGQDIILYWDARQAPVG
T1 sequence (P01887 21-119 partner): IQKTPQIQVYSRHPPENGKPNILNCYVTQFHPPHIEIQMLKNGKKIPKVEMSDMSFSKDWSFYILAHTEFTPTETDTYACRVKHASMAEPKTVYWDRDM
Kind of experiment: microscale thermophoresis. The experiment is classed as binding. In general terms: Microscale thermophoresis detects binding through changes in fluorescence in a small temperature gradient.

Experimental findings from publication PMC6420026, “TLR9-mediated dendritic cell activation uncovers mammalian ganglioside species with specific ceramide backbones that activate invariant natural killer T cells” (PLoS Biology, 2019) are described below.

Structures are written as SMILES. Read-outs that look alike come from different tables or passages of the source.

By Kd is commonly meant the free concentration of one partner at which half of the binding sites on the other are occupied at equilibrium, for simple one-to-one binding. Read a high Kd as a looser complex. In turn, `CCCCCCCC/C=C\CCCCCCCCCCCCCC(=O)N[C@@H](CO[C@@H]1O[C@H](CO)[C@@H](O[C@@H]2O[C@H](CO)[C@H](O)[C@H](O[C@]3(C(=O)O)C[C@H](O)[C@@H](NC(C)=O)[C@H]([C@H](O)[C@@H](CO)O[C@]4(C(=O)O)C[C@H](O)[C@@H](NC(C)=O)[C@H]([C@H](O)[C@H](O)CO)O4)O3)[C@H]2O)[C@H](O)[C@H]1O)[C@H](O)/C=C/CCCCCCCCCCCCC` [C24:1 GD3] displayed a Kd (NT-647-labelled mCD1d 125 nM, PBS 25 mM, 0.05% Tyloxapol, up to 5% DMSO, 1:1 fit, labelled protein) of 69.1 ± 1.5 µM. In turn, `CCCCCCCC/C=C\CCCCCCCCCCCCCC(=O)N[C@@H](CO[C@@H]1O[C@H](CO)[C@@H](O[C@@H]2O[C@H](CO)[C@H](O)[C@H](O[C@]3(C(=O)O)C[C@H](O)[C@@H](NC(C)=O)[C@H]([C@H](O)[C@H](O)CO)O3)[C@H]2O)[C@H](O)[C@H]1O)[C@H](O)/C=C/CCCCCCCCCCCCC` [C24:1 GM3] came in with a Kd of 102 ± 2.3 µM. The same measure, in the same setting: under `CCCCCCCC/C=C\CCCCCCCCCCCCCC(=O)N[C@@H](CO[C@@H]1O[C@H](CO)[C@@H](O)[C@H](O)[C@H]1O)[C@H](O)/C=C/CCCCCCCCCCCCC` [C24:1 β-GlcCer] stands 2540 µM.
